Data published in patent publication EP0715850A1, “Use of proline and/or derivatives as an antihepatitis agent” (RESEARCH DEVELOPMENT CORPORATION OF JAPAN, priority 1994, dated 1996).
Read-outs that look alike come from different tables or passages of the source.

What was measured:
[1] = system: rats suffering galactosamine induced fulminant hepatitis; details: ten days after galactosamine
Description: Because of the similarity of pathological findings to those of human hepatitis and a large number of patients, experiments were carried out on the effect of administration of proline on the survival rate of rats suffering galactosamine induced fulminant hepatitis commonly used as a hepatitis model.
Fisher strain rats (male; eight weeks of age; body weight: 160 to 190 g) were divided into four groups each comprising nine rats. Rats of three groups were administered with 30% galactosamine hydrochloride-saline through intraperitoneal administration (1.4 g/kg body weight) to form fulminant hepatitis models (GalN), and only saline was administered to the remaining group to form a control group.
For 12 hours before and after administration of galactosamine, the rats were fasted, and from 12 hours prior to administration of galactosamine through six hours thereafter, the rats were caused to freely ingest 10% glucose aqueous solution.

[2] = system: LEC rat which spontaneously develops hepatitis, cirrhosis and hepatoma; assay: death rate and jaundice of LEC rats that spontaneously develop hepatitis; type: in vivo
Description: An effect of proline was investigated by using LEC rat which spontaneously develops hepatitis, cirrhosis and hepatoma.
Weanlings of LEC rats (seven weeks of age: food deprived for one week before testing) were divided into 2 groups, and copper deficiency feed and normal feed were presented to the groups, respectively. The rats of 2 groups were further divided into 3 groups: group of free drinking of proline solution (0.2M of proline in distilled water); group of oral administration of proline solution (135-150 mg of proline/day); and group of free drinking of water. Death rate of 6 groups of rats were measured. A relationship between the amount of proline solution consumed by rats and the degree of jaundice of the rats was also measured.

[3] = system: rats suffering galactosamine induced fulminant hepatitis; details: blood sampled 36 hours after galactosamine; Pre-Pro and Post-Pro groups, proline 2.0 g/kg oral
Description: The effect of administration of proline on transamylase activity in blood of rats suffering galactosamine induced fulminant hepatitis was investigated.
Blood was sampled from each of the four groups of rats (GalN, Control, Pre-Pro, and Post-Pro) of Example 1, upon the lapse of 36 hours after administration of galactosamine, and activity of transamylase in blood (glutamic-oxaloacetic acid transamylase: GOT; glutamic-pyruvic acid transamylase: GPT) was measured in accordance with the conventional method.

**Q.** How did the survival rate ([1]; post-administration (Post-Pro) group: proline 2.0 g/kg oral at 6, 12 and 24 hours after galactosamine (1.4 g/kg i.p.), 7/9) turn out when O=C(O)[C@@H]1CCCN1 [Proline, proline] was run?
**A.** The survival rate was 78%.

**Q.** And the survival rate ([1]; pre-administration (Pre-Pro) group: proline 2.0 g/kg oral one hour prior to and 12 and 24 hours after galactosamine (1.4 g/kg i.p.), 9/9)?
**A.** Its survival rate is 100%.

**Q.** And the degree of jaundice ([2]; LEC rats ingesting proline solution, Fig. 3)?
**A.** Its degree of jaundice is “diminished the jaundice”.

**Q.** What about the Death rate ([2]; copper deficiency feed, free drinking of proline solution (0.2M in distilled water)) of the same compound?
**A.** Its Death rate is 0%.

**Q.** What about the Death rate ([2]; copper deficiency feed, oral administration of proline solution (135-150 mg of proline/day)) of the same compound?
**A.** Its Death rate is 0%.

**Q.** And the Death rate ([2]; normal feed, free drinking of proline solution (0.2M in distilled water))?
**A.** The Death rate was 85%.

**Q.** What about the Death rate ([2]; normal feed, oral administration of proline solution (135-150 mg of proline/day)) of the same compound?
**A.** Its Death rate is 57%.

**Q.** What about the “increase in the concentration of GOT in blood” value [3] of the same compound?
**A.** Its value is “largely inhibited”.

**Q.** What about the “increase in the concentration of GPT in blood” value [3] of the same compound?
**A.** The value was “largely inhibited”.
